Source: patent publication US7417175B2, “Interstitial prostatism model animal” (Taiho Pharmaceuticals Co., Ltd., priority 2001, dated 2008)

Key:
[1] = tested on: subcutaneously-implanted, rat fetal urogenital sinus-derived tissues; experiment: Inhibition of weight increase of rat fetal urogenital sinus-derived tissue implanted subcutaneously in nude mice (prostatic stromal hyperplasia model); format: in vivo, male nude mice (BALB/cA Jcl-nu); conditions: for Rate of inhibition (%) to weight increase of implanted tissue: tissue weighed day 14, vs solvent group
Source text: Under ether anesthesia, fetuses were removed from female SD rats that were 21 days pregnant. From the removed male fetuses, urogenital sinuses were removed also under ether anesthesia while observing through a stereoscopic microscope. The urogenital sinuses were stored in a sterilized culture medium until implantation. The abdominal skin adjacent the left femoral region of 6-week old BALB/c male nude mice was cut open about 2 to 3 mm under ether anesthesia. A single rat fetal urogenital sinus obtained in (1) above was subcutaneously implanted after incision using a forceps and the incision was sutured. Thereafter, these nude mice were reared in clean racks (Rat Bracket Cages, 3 to 4 mice/cage) for 2 weeks under the following conditions: • Temperature: 20 to 26° C. • Humidity: 30 to 70% • Lighting hours: 12-hour light-dark cycle; light-on at 8 am and light-out at 8 pm • Feed and feeding method: solid feed for mouse, MF (irradiated), ad libitum • Water and watering method: tap water, ad libitum (3) Weighing of Implanted Tissue (Rat Fetal Urogenital Sinus-derived Tissue) Animal models for prostatic stromal hyperplasia of the invention were prepared according to the methods described in Example 1 (1) and (2) by implanting the urogenital sinuses of rat fetuses (21 day-old) beneath the abdominal skin of 6-week-old male nude mice (BALB/cA Jcl-nu). For 2 weeks from the implantation day (day 0), a known therapeutic agent for benign prostatic hyperplasia, i.e., chlormadinone acetate (anti-androgen agent: 6-chloro-3,20-dioxopregna-4,6-dien-17,alpha-yl acetate; suspended or dissolved in 0.5% hydroxypropylmethyl cellulose (0.5% HPMC) solvent) was forcedly administered orally once a day (3 test substance-administered groups: 30 mg/kg·day, 100 mg/kg·day, 300 mg/kg·day; n=10 mice/group). Two weeks after the beginning of administration (day 14), the model animals were sacrificed by over anesthesia, and the implanted tissues (rat fetal urogenital sinus-derived tissues) were removed and weighed (weights from the test substance-administered groups). As a control experiment, for 2 weeks after implantation, model animals (solvent-administered group: n=10 mice) were forcedly administered with a solvent (0.5% HPMC), no chlormadinone acetate dissolved therein, once a day orally. […] The inhibition rate to weight increase of the subcutaneously-implanted, rat fetal urogenital sinus-derived tissues was calculated according to the formula shown in Equation 1, with respect to each chlormadinone acetate-administered group, and the effects of the therapeutic agent for benign prostatic hyperplasia (chlormadinone acetate) upon these tissues were then evaluated. […]

[2] = tested on: rat fetal urogenital sinus-derived tissues implanted beneath the prostatic capsules; experiment: Inhibition of weight increase of rat fetal urogenital sinus-derived tissue implanted beneath the prostatic capsule of rats (prostatic stromal hyperplasia model); format: in vivo, male SD rats
Source text: Under ether anesthesia, fetuses were removed from female SD rats that were 20 days pregnant. From the removed fetuses, the urogenital sinuses were removed under ether anesthesia while observing through a stereoscopic microscope. The urogenital sinuses were stored in a sterilized culture medium until implantation. The prostate glands were exposed by midline incision using 6-week old male SD rats under ether anesthesia. The capsule of prostate right ventral lobe was slightly cut open while observing through a stereoscopic microscope. Two of the fetal urogenital sinuses obtained in (1) above were implanted using a forceps beneath the capsule, and the incision in the capsule was sutured. The cut abdominal skin then closed and the rats were reared for 2 to 8 weeks in normal rearing cages (Rat Bracket Cages, 3 to 4 rats/cage) under the following conditions: • Temperature: 20 to 26° C. • Humidity: 30 to 70% • Lighting hours: 12-hour light-dark cycle; light-on at 8 am and light-out at 8 pm • Feed and feeding method: solid feed for mouse, MF (irradiated), ad libitum • Water and watering method: tap water, ad libitum (3) Weighing of Implanted Tissue (Rat Fetal Urogenital Sinus-derived Tissue) Animal models for prostatic stromal hyperplasia of the present invention were prepared according to the methods described in Examples 2 (1) and (2) by implanting the urogenital sinuses of rat fetuses (20 days of intrauterine life) beneath the capsules of prostate ventral lobes of 6-week-old male SD rats. […] The rate inhibition to weight increase of the rat fetal urogenital sinus-derived tissues implanted beneath the prostatic capsules was calculated according to the formula shown in Equation 1 above, and the effects of the therapeutic agent on benign prostatic hyperplasia (chlormadinone acetate) were then evaluated. • Experiment (2): Animal models for prostatic stromal hyperplasia prepared as above were reared under the conditions described in Example 2 (2) for 3 weeks (until day 21) from the implantation day (day 0). […]

CC(=O)O[C@]1(C(C)=O)CC[C@H]2[C@@H]3C=C(Cl)C4=CC(=O)CC[C@]4(C)[C@H]3CC[C@@]21C [chlormadinone acetate, 6-chloro-3,20-dioxopregna-4,6-dien-17,alpha-yl acetate]
Rate of inhibition (%) to weight increase of implanted tissue ([1]; 30 mg/kg·day orally once a day for 2 weeks from implantation day): 21.8%
Rate of inhibition (%) to weight increase of implanted tissue ([1]; 100 mg/kg·day orally once a day for 2 weeks from implantation day): 39.5%
Rate of inhibition (%) to weight increase of implanted tissue ([1]; 300 mg/kg·day orally once a day for 2 weeks from implantation day): 38.8%
Effect on tissue weight increase (in words) ([1]; oral, 2 weeks of rearing after implantation, subcutaneous implant in nude mice): significantly inhibits the tissues weight increase
Rate of inhibition (%) to weight increase of implanted tissue ([2]; Experiment (1): 10 mg/kg·day orally for 3 weeks from implantation date, tissue weighed day 21): 30.7%
Rate of inhibition (%) to weight increase of implanted tissue ([2]; Experiment (2): 10 mg/kg·day orally for 3 weeks from 3 weeks after implantation (day 21 to day 42), tissue weighed day 42): 67.0%
Effect on tissue weight increase (in words) ([2]; Experiments (1) and (2), 10 mg/kg·day oral, implant beneath prostatic capsule of rats): significantly inhibits the tissue weight increase
